Test results as given in PubChem BioAssay AID488890 (Southern Research Specialized Biocontainment Screening …, 2010).
Inconclusive results are not listed. Activity calls are given as the source filed them. How the calls were made is not given here.

Each compound was assayed on Mycobacterium tuberculosis non-replicating, growth inhibition (assay: growth inhibition of non-replicating M. tuberculosis (AID 488890)).

SMILES | IC50
COC(=O)/C(=C1/Oc2cc(C)oc(=O)c2S1)C(F)(F)F | < 0.1 µM
Cc1ccc(-c2ccc(/C=N/NC(=O)CN3CCOCC3)o2)cc1[N+](=O)[O-] | 32.2 µM (inactive)
CCOc1ccc(/C=N/OCC(=O)Nc2ccc3c(c2)OCO3)cc1 | 5.11 µM
CCc1ccc(OCC(=O)Nc2ccncc2)c(Br)c1 | 6.25 µM
O=C(N/N=C/c1ccccn1)c1cccc([N+](=O)[O-])c1 | 3.91 µM
CCOc1ccc(NC(=O)CCNC(=O)c2ccc(Br)cc2)cc1 | 13.8 µM (inactive)
CCCCN1C(=O)C2(NNc3ccccc3O2)c2ccccc21 (stereo unspecified) | 4.67 µM
Cc1cc(C)n(-c2ccc(C(=O)Oc3ccc4c(c3)OCO4)cc2)n1 | 11.9 µM (inactive)
Cc1ccc(-c2cc(C(F)F)nc(S(C)(=O)=O)n2)cc1 | 6.96 µM
Cc1onc(-c2c(F)cccc2Cl)c1C(=O)O/N=C(\N)c1ccc([N+](=O)[O-])o1 | 5.96 µM
Cc1cc(Cl)ccc1OCCCC(=O)NO | 14.6 µM (inactive)
O=C(COC(=O)c1ccccc1)NC12CC3CC(CC(C3)C1)C2 | 24 µM (inactive)
COc1ccc(C(C#N)=C2C=CC(=NO)C=C2)cc1 | 16 µM (inactive)
Cc1cc(C(=O)N/N=C/c2ccc(OC(=O)c3ccccc3Br)cc2)n[nH]1 | 15.6 µM (inactive)
CC(/C=C/c1ccccc1)=N\NC(=O)c1ccc2c(c1)OCCO2 | 8.02 µM
CN(O)/C=c1/ccc2c(n1)C(=O)C=CC=2 | 1.92 µM
O=C(NNC(=O)c1cnccn1)c1ccc(Cl)c(Cl)c1 | 3.23 µM
O=C1NC(=O)N(CCc2ccc(F)cc2)C(=O)/C1=C/C=C/c1ccccc1 | 5.37 µM
C=CCNc1nc(C(=O)OCC(=O)c2cccc(Br)c2)cs1 | 20.8 µM (inactive)
CCCCN(CC)S(=O)(=O)c1ccc(C(=O)Nc2nnc(-c3cccs3)o2)cc1 | 11.3 µM (inactive)
CN1/C(=C\C=N\NC(=O)c2cccnc2)C(C)(C)c2ccccc21 | 46.5 µM (inactive)

SMILES | IC50
CCn1c2ccccc2c2cc(CNCc3ccc(OC)cc3OC)ccc21 | 7.41 µM
O=C(Oc1ccc(F)cc1)c1ccc2c(=O)n3c(nc2c1)CCC3 | 2.49 µM
CCNC(=O)NC(=O)C(C)OC(=O)CCCSc1nc2ccccc2s1 (stereo unspecified) | 4.68 µM
COc1cccc(COC(=O)c2sc3nc4n(c(=O)c3c2C)CCC4)c1OC | 2.48 µM
Cc1oc(=O)c(NC(=O)c2ccccc2)cc1C(=O)c1ccccc1 | 5.33 µM
Cc1ccc(NC(=O)COc2ccc(-n3ccnc3)cc2)cc1Cl | 6.44 µM
CCn1nnc(NC(=O)COc2ccc(C3CCCCC3)cc2)n1 | 1.5 µM
Cc1ccc(NCCC(=O)c2cccs2)cc1Cl | 3.56 µM
CCOC(=O)NC(=O)COC(=O)CCCSc1nc2ccccc2s1 | 10 µM (inactive)
Oc1ccc(Cl)cc1C1=NNC(c2cccs2)C1 (stereo unspecified) | 3.85 µM
CCOC(=O)Nc1ccc2c(c1)N(C(=O)CCN1CCOCC1)c1ccccc1S2=O (stereo unspecified) | 3.62 µM
O=C(CCS(=O)(=O)Cc1ccccc1)Nc1ncc([N+](=O)[O-])s1 | 1.97 µM
CCCCCCCNC(=O)C1(CC2CC(c3cccc(Br)c3)=NO2)CCNCC1 (stereo unspecified) | 13.7 µM (inactive)
O=Cc1ccnc(-c2ccc(OC(=O)c3ccco3)cc2)n1 | 18.2 µM (inactive)
Cc1ccc(NCCC(=O)c2cccs2)cc1 | 2.33 µM
N/C(=N/OC(=O)c1ccc(Cl)cc1)c1ncc([N+](=O)[O-])s1 | 7.53 µM
O=C(OCc1ccccn1)c1ccc(COc2ccccc2Cl)o1 | 3.14 µM
CCN(CC)C(=O)c1sc2nc(-c3ccccc3)ccc2c1N | 14.7 µM (inactive)
O=C(Nc1ccccc1)c1cc2ccccc2o1 | 4.57 µM
O=C(CNC(=O)c1cccc(F)c1)N/N=C/c1ccc([N+](=O)[O-])s1 | 10.6 µM (inactive)
